Patent US20210269434A1, “TRICYCLIC COMPOUNDS AS INHIBITORS OF KRAS” (Incyte Corporation, priority 2020, published 2021)
pIC50: −log10 of the molar value.

Legend:
[1] = target: KRAS G12C (Homo sapiens, UniProt P01116, G12C); test: GDP-GTP exchange assay (KRAS_G12C exchange); type: biochemical; conditions: bodipy-GDP loaded KRAS G12C 2.5 nM, SOS1 150 nM, GppNHp; 2 hours pre-incubation, 2 hours reaction; read-out: G12C_exchange
Procedure, shortened: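 Fluorescence exchange of bodipy-GDP for GppNHp, SOS1-driven, read at 485/520 nm; IC50 from four-parameter variable-slope fit. Both mutants used 2.5 nM final labelled protein and a 2 h compound pre-incubation. G12C reaction had 500 uM GppNHp and 150 nM SOS1 for 2 h; G12D ran 4 h.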

[2] = system: MIA PaCa-2 (KRAS G12C) cells; test: Cellular pERK HTRF assay (KRAS_G12C pERK); type: cell-based, human; conditions: Homo sapiens, MIA PaCa-2, 4 hours incubation, read-out: G12C_pERK
Procedure, shortened: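 MIA PaCa-2 cells plated overnight, then exposed to compound for 4 h at 37 °C (G12C compounds). Phospho-ERK1/2 measured in lysates by HTRF (665/620 nm) after overnight antibody incubation; IC50 from percent inhibition versus log concentration.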

Chain of KRAS G12C (P01116 1-188 isoform P01116-2 G12C): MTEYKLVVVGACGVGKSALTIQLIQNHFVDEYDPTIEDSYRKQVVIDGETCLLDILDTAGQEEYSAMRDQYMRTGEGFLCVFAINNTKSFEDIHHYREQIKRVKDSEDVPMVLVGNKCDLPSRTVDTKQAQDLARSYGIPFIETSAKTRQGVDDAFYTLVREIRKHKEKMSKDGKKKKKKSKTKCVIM

Row | pIC50 [1] | pIC50 [2] | SMILES
1 | ≥ 7.00 | ≥ 7.00 | C=CC(=O)N1CC[C@H](n2nnc3c(N4CC(N(C)C)C4)nc4cc(-c5cccc(Cl)c5C)c(C)cc4c32)C[C@H]1CC#N [Example 172, 2-((2S,4S)-1-acryloyl-4-(7-(3-chloro-2-methylphenyl)-4-(3-(dimethylamino)azetidin-1-yl)-8-methyl-1H-[1,2,3]triazolo[4,5-c]quinolin-1-yl)piperidin-2-yl)acetonitrile]
2 | ≥ 7.00 | ≥ 7.00 | C=CC(=O)N1CC[C@H](n2cnc3c(-c4cccnc4C)nc4c(F)c(-c5cccc(Cl)c5C)c(Cl)cc4c32)C[C@H]1CC#N [Example 173, 2-((2S,4S)-1-acryloyl-4-(8-chloro-7-(3-chloro-2-methylphenyl)-6-fluoro-4-(2-methylpyridin-3-yl)-1H-imidazo[4,5-c]quinolin-1-yl)piperidin-2-yl)acetonitrile]
3 | ≥ 7.00 | ≥ 7.00 | C=CC(=O)N1CC[C@H](n2nnc3c(-c4cccnc4C)nc4c(F)c(-c5cccc(Cl)c5C)c(Cl)cc4c32)C[C@H]1CC#N [Example 174, 2-((2S,4S)-1-acryloyl-4-(8-chloro-7-(3-chloro-2-methylphenyl)-6-fluoro-4-(2-methylpyridin-3-yl)-1H-[1,2,3]triazolo[4,5-c]quinolin-1-yl)piperidin-2-yl)acetonitrile]
4 | ≥ 7.00 | ≥ 7.00 | CN(C)C/C=C/C(=O)N1CC[C@H](n2cnc3c(N4CC(N(C)C)C4)nc4c(F)c(-c5cncc6ccccc56)c(Cl)cc4c32)C[C@H]1CC#N [Example 175, 2-((2S,4S)-4-(8-chloro-4-(3-(dimethylamino)azetidin-1-yl)-6-fluoro-7-(isoquinolin-4-yl)-1H-imidazo[4,5-c]quinolin-1-yl)-1-((E)-4-(dimethylamino)but-2-enoyl)piperidin-2-yl)acetonitrile]
5 | ≥ 7.00 | ≥ 7.00 | Cc1c(Cl)cc2[nH]ncc2c1-c1c(Cl)cc2c(nc(N3CC(N(C)C)C3)c3ncn([C@H]4CCN(C(=O)/C=C/CN(C)C)[C@H](CC#N)C4)c32)c1F [Example 176, 2-((2S,4S)-4-(8-chloro-7-(6-chloro-5-methyl-1H-indazol-4-yl)-4-(3-(dimethylamino)-azetidin-1-yl)-6-fluoro-1H-imidazo[4,5-c]quinolin-1-yl)-1-((E)-4-(dimethylamino)but-2-enoyl)piperidin-2-yl)acetonitrile]
6 | ≥ 7.00 | ≥ 7.00 | CC#CC(=O)N1CC[C@H](n2cnc3c(N4CC(N(C)C)C4)nc4c(F)c(-c5c(C)c(Cl)cc6[nH]ncc56)c(Cl)cc4c32)C[C@H]1CC#N [Example 177a, 2-((2S,4S)-1-(but-2-ynoyl)-4-(8-chloro-7-(6-chloro-5-methyl-1H-indazol-4-yl)-4-(3-(dimethylamino)azetidin-1-yl)-6-fluoro-1H-imidazo[4,5-c]quinolin-1-yl)piperidin-2-yl)acetonitrile]
7 | ≥ 7.00 | ≥ 7.00 | Cc1c(Cl)cc2[nH]ncc2c1-c1c(Cl)cc2c(nc(N3CC(N(C)C)C3)c3nnn([C@H]4CCN(C(=O)/C=C/CN(C)C)[C@H](CC#N)C4)c32)c1F [Example 179a, 2-((2S,4S)-4-(8-chloro-7-(6-chloro-5-methyl-1H-indazol-4-yl)-4-(3-(dimethylamino)-azetidin-1-yl)-6-fluoro-1H-[1,2,3]triazolo[4,5-c]quinolin-1-yl)-1-((E)-4-(dimethyl-amino)but-2-enoyl)piperidin-2-yl)acetonitrile]
8 | ≥ 7.00 | ≥ 7.00 | CC#CC(=O)N1CC[C@H](n2cnc3c(OC[C@@H]4CCCN4C)nc4c(F)c(-c5c(C)c(Cl)cc6[nH]ncc56)c(Cl)cc4c32)C[C@H]1CC#N [Example 180, 2-((2S,4S)-1-(but-2-ynoyl)-4-(8-chloro-7-(6-chloro-5-methyl-1H-indazol-4-yl)-6-fluoro-4-(((S)-1-methylpyrrolidin-2-yl)methoxy)-1H-imidazo[4,5-c]quinolin-1-yl)piperidin-2-yl)acetonitrile]
9 | ≥ 7.00 | ≥ 7.00 | Cc1c(Cl)cc2[nH]ncc2c1-c1c(Cl)cc2c(nc(OC[C@@H]3CCCN3C)c3ncn([C@H]4CCN(C(=O)/C=C/CN(C)C)[C@H](CC#N)C4)c32)c1F [Example 181a, 2-((2S,4S)-4-(8-chloro-7-(6-chloro-5-methyl-1H-indazol-4-yl)-6-fluoro-4-(((S)-1-methylpyrrolidin-2-yl)-methoxy)-1H-imidazo[4,5-c]quinolin-1-yl)-1-((E)-4-(dimethylamino)but-2-enoyl)piperidin-2-yl)acetonitrile]
10 | ≥ 7.00 | ≥ 7.00 | CC#CC(=O)N1CC[C@H](n2nnc3c(OC[C@@H]4CCCN4C)nc4c(F)c(-c5c(C)c(Cl)cc6[nH]ncc56)c(Cl)cc4c32)C[C@H]1CC#N [Example 182, 2-((2S,4S)-1-(but-2-ynoyl)-4-(8-chloro-7-(6-chloro-5-methyl-1H-indazol-4-yl)-6-fluoro-4-(((S)-1-methylpyrrolidin-2-yl)methoxy)-1H-[1,2,3]triazolo[4,5-c]quinolin-1-yl)piperidin-2-yl)acetonitrile]
11 | ≥ 7.00 | ≥ 7.00 | Cc1c(Cl)cc2[nH]ncc2c1-c1c(Cl)cc2c(nc(OC[C@@H]3CCCN3C)c3nnn([C@H]4CCN(C(=O)/C=C/CN(C)C)[C@H](CC#N)C4)c32)c1F [Example 183a, 2-((2S,4S)-4-(8-chloro-7-(6-chloro-5-methyl-1H-indazol-4-yl)-6-fluoro-4-(((S)-1-methylpyrrolidin-2-yl)-methoxy)-1H-[1,2,3]triazolo-[4,5-c]quinolin-1-yl)-1-((E)-4-(dimethylamino)but-2-enoyl)piperidin-2-yl)acetonitrile]
12 | ≥ 7.00 | ≥ 7.00 | COC/C=C/C(=O)N1CC[C@H](n2cnc3c(OC[C@@H]4CCCN4C)nc4c(F)c(-c5c(C)c(Cl)cc6[nH]ncc56)c(Cl)cc4c32)C[C@H]1CC#N [Example 184a, 2-((2S,4S)-4-(8-chloro-7-(6-chloro-5-methyl-1H-indazol-4-yl)-6-fluoro-4-(((S)-1-methylpyrrolidin-2-yl)methoxy)-1H-imidazo[4,5-c]quinolin-1-yl)-1-((E)-4-methoxybut-2-enoyl)piperidin-2-yl)acetonitrile]
13 | ≥ 7.00 | ≥ 7.00 | COC/C=C/C(=O)N1CC[C@H](n2nnc3c(N4CC(N(C)C)C4)nc4c(F)c(-c5c(C)c(Cl)cc6[nH]ncc56)c(Cl)cc4c32)C[C@H]1CC#N [Example 186a, 2-((2S,4S)-4-(8-chloro-7-(6-chloro-5-methyl-1H-indazol-4-yl)-4-(3-(dimethylamino)azetidin-1-yl)-6-fluoro-1H-[1,2,3]triazolo[4,5-c]quinolin-1-yl)-1-((E)-4-methoxybut-2-enoyl)piperidin-2-yl)acetonitrile]
14 | ≥ 7.00 | ≥ 7.00 | C=CC(=O)N1CC[C@H](n2nnc3c(OC[C@@H]4CCCN4C)nc4c(F)c(-c5ccc(F)c(C)c5)c(Cl)cc4c32)C[C@H]1CC#N [Example 187, 2-((2S,4S)-1-acryloyl-4-(8-chloro-6-fluoro-7-(4-fluoro-3-methylphenyl)-4-(((S)-1-methylpyrrolidin-2-yl)methoxy)-1H-[1,2,3]triazolo[4,5-c]quinolin-1-yl)piperidin-2-yl)acetonitrile]
15 | ≥ 7.00 | ≥ 7.00 | CC#CC(=O)N1CC[C@H](n2nnc3cnc4c(F)c(-c5c(C)c(Cl)cc6[nH]ncc56)c(Cl)cc4c32)C[C@H]1CC#N [Example 188, 2-((2S,4S)-1-(but-2-ynoyl)-4-(8-chloro-7-(6-chloro-5-methyl-1H-indazol-4-yl)-6-fluoro-1H-[1,2,3]triazolo[4,5-c]quinolin-1-yl)piperidin-2-yl)acetonitrile]
16 | ≥ 7.00 | ≥ 7.00 | C=C(F)C(=O)N1CC[C@H](n2nnc3c(N4CC(N(C)C)C4)nc4c(F)c(-c5c(C)c(Cl)cc6[nH]ncc56)c(Cl)cc4c32)C[C@H]1CC#N [Example 189, 2-((2S,4S)-4-(8-chloro-7-(6-chloro-5-methyl-1H-indazol-4-yl)-4-(3-(dimethylamino)azetidin-1-yl)-6-fluoro-1H-[1,2,3]triazolo[4,5-c]quinolin-1-yl)-1-(2-fluoroacryloyl)piperidin-2-yl)acetonitrile]
17 | ≥ 7.00 | ≥ 7.00 | C=CC(=O)N1CC[C@H](n2nnc3c(OC[C@@H]4CCCN4C)nc4c(F)c(-c5c(C)c(Cl)cc6[nH]ncc56)c(Cl)cc4c32)C[C@H]1CC#N [Example 190a, 2-((2S,4S)-1-acryloyl-4-(8-chloro-7-(6-chloro-5-methyl-1H-indazol-4-yl)-6-fluoro-4-(((S)-1-methylpyrrolidin-2-yl)methoxy)-1H-[1,2,3]triazolo[4,5-c]quinolin-1-yl)piperidin-2-yl)acetonitrile]
18 | ≥ 7.00 | ≥ 7.00 | C=C(F)C(=O)N1CC[C@H](n2nnc3c(OC[C@@H]4CCCN4C)nc4c(F)c(-c5c(C)c(Cl)cc6[nH]ncc56)c(Cl)cc4c32)C[C@H]1CC#N [Example 192, 2-((2S,4S)-4-(8-chloro-7-(6-chloro-5-methyl-1H-indazol-4-yl)-6-fluoro-4-(((S)-1-methylpyrrolidin-2-yl)methoxy)-1H-[1,2,3]triazolo[4,5-c]quinolin-1-yl)-1-(2-fluoroacryloyl)piperidin-2-yl)acetonitrile]
19 | ≥ 7.00 | ≥ 7.00 | COC/C=C/C(=O)N1CC[C@H](n2nnc3c(N4CC(C)(N(C)C)C4)nc4c(F)c(-c5c(C)c(Cl)cc6[nH]ncc56)c(C)cc4c32)C[C@H]1CC#N [Example 195a, 2-((2S,4S)-4-(7-(6-chloro-5-methyl-1H-indazol-4-yl)-4-(3-(dimethylamino)-3-methylazetidin-1-yl)-6-fluoro-8-methyl-1H-[1,2,3]triazolo[4,5-c]quinolin-1-yl)-1-((E)-4-methoxybut-2-enoyl)piperidin-2-yl)acetonitrile]
